The record followed here is patent publication US11752126B2, “Stable cannabinoid compositions” (Sino-German M&A Service GmbH, priority 2017, dated 2023).

This data set is described as follows: THC content over time in different stabilizing systems (FIG. 1). The data set is classed as physicochemical. From the text:
In the lower data set, the initial concentration of THC is reduced to 91% at day 93 with respect to the initial concentration of THC at day 0.

Turning to `CCCCCc1cc(O)c2c(c1)OC(C)(C)[C@@H]1CCC(C)=C[C@@H]21` [THC, tetrahydrocannabinol], the “evolution of the relative concentration of tetrahydrocannabinol (THC)” value (system including 1 weight percent tocopherol, over time) was “nearly flat over time”. In addition, the “relative concentration of tetrahydrocannabinol (THC)” value (system including no tocopherol, day 93, with respect to the initial concentration of THC at day 0) is on record as 91%.
